Measured values from ChEMBL document CHEMBL3046368, “Synthesis of benzothiazole derivatives and their biological evaluation as anticancer agents” (2012).
Calls of active or inactive are those of the source. The calls are words filed in the database; no cut-off is given here.

Assays:
CCRF-CEM = experiment: Cytotoxicity against Homo sapiens (human) CCRF-CEM cells after 48 hr by SRB assay; assay type: functional
IGROV-1 = experiment: Cytotoxicity against Homo sapiens (human) IGROV1 cells after 48 hr by SRB assay; assay type: functional; details: IGROV-1, 48 h
PC-3 = experiment: Cytotoxicity against Homo sapiens (human) PC3 cells after 48 hr by SRB assay; assay type: functional; details: PC-3, 48 h
MDA-MB-468 = experiment: Cytotoxicity against Homo sapiens (human) MDA-MB-468 cells after 48 hr by SRB assay; assay type: functional; details: MDA-MB-468, 48 h
NCI-H522 = experiment: Cytotoxicity against Homo sapiens (human) NCI-H522 cells after 48 hr by SRB assay; assay type: functional; details: NCI-H522, 48 h
SNB-75 = experiment: Cytotoxicity against Homo sapiens (human) SNB75 cells after 48 hr by SRB assay; assay type: functional; details: SNB-75, 48 h
RXF 393 = experiment: Cytotoxicity against Homo sapiens (human) RXF393 cells after 48 hr by SRB assay; assay type: functional; details: RXF 393, 48 h
Hs-578T = experiment: Cytotoxicity against Homo sapiens (human) Hs578T cells after 48 hr by SRB assay; assay type: functional
BT-549 = experiment: Cytotoxicity against Homo sapiens (human) BT549 cells after 48 hr by SRB assay; assay type: functional; details: BT-549, 48 h
COLO 205 = experiment: Cytotoxicity against Homo sapiens (human) COLO205 cells after 48 hr by SRB assay; assay type: functional; details: COLO 205, 48 h
KM12 = experiment: Cytotoxicity against Homo sapiens (human) KM12 cells after 48 hr by SRB assay; assay type: functional; details: KM12, 48 h
OVCAR-5 = experiment: Cytotoxicity against Homo sapiens (human) OVCAR5 cells after 48 hr by SRB assay; assay type: functional; details: OVCAR-5, 48 h
SF-268 = experiment: Cytotoxicity against Homo sapiens (human) SF268 cells after 48 hr by SRB assay; assay type: functional; details: SF-268, 48 h
EKVX = experiment: Cytotoxicity against Homo sapiens (human) EKVX cells after 48 hr by SRB assay; assay type: functional
[1] = molecular target: T1, Ubiquitin-like modifier-activating enzyme 1 (Homo sapiens) (UniProt P22314); experiment: Inhibition of ubiquitin displacement on His6-tagged E2 enzyme from His6-tagged UBA1 (unknown origin) at 10 uM after 1.5 hr by SDS-PAGE analysis
T1 sequence (whole entry): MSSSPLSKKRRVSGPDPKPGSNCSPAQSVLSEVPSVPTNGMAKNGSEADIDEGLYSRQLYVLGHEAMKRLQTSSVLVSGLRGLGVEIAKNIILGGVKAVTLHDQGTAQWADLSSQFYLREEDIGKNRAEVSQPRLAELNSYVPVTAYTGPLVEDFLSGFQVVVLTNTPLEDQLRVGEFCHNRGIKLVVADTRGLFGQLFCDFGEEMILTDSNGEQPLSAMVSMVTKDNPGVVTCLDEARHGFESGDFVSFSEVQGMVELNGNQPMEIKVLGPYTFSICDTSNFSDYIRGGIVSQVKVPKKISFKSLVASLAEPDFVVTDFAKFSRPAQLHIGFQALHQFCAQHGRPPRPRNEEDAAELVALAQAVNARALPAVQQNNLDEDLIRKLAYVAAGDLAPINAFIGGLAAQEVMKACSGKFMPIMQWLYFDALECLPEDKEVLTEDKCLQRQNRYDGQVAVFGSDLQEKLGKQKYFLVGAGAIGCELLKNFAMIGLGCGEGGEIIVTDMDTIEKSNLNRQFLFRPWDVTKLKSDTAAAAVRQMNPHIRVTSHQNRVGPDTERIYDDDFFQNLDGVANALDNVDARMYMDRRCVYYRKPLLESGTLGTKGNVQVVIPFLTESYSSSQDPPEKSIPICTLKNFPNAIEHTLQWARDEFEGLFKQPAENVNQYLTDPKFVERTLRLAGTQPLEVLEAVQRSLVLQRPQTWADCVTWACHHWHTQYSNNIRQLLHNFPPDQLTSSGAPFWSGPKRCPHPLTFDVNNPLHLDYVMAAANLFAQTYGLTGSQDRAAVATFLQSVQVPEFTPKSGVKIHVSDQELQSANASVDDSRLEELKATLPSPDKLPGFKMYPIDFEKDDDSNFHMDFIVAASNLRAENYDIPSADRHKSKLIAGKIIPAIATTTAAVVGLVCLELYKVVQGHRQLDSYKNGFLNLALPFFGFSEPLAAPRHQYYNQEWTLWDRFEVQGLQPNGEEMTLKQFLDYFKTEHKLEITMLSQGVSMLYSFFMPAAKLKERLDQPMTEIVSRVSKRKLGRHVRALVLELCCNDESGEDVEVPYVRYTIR

SK-MEL-2 = experiment: Cytotoxicity against Homo sapiens (human) SK-MEL-2 cells after 48 hr by SRB assay; assay type: functional; details: SK-MEL-2, 48 h
HT-29 = experiment: Cytotoxicity against Homo sapiens (human) HT-29 cells after 48 hr by SRB assay; assay type: functional; details: HT-29, 48 h
HOP-62 = experiment: Cytotoxicity against Homo sapiens (human) HOP62 cells after 48 hr by SRB assay; assay type: functional; details: HOP-62, 48 h
MDA-MB-231 = experiment: Cytotoxicity against Homo sapiens (human) MDA-MB-231 cells after 48 hr by SRB assay; assay type: functional; details: MDA-MB-231, 48 h
RPMI-8226 = experiment: Cytotoxicity against Homo sapiens (human) RPMI8226 cells after 48 hr by SRB assay; assay type: functional; details: RPMI-8226, 48 h
SN12C = experiment: Cytotoxicity against Homo sapiens (human) SN12C cells after 48 hr by SRB assay; assay type: functional
T47D = experiment: Cytotoxicity against Homo sapiens (human) T47D cells after 48 hr by SRB assay; assay type: functional
HOP-92 = experiment: Cytotoxicity against Homo sapiens (human) HOP92 cells after 48 hr by SRB assay; assay type: functional; details: HOP-92, 48 h
K562 = experiment: Cytotoxicity against Homo sapiens (human) K562 cells after 48 hr by SRB assay; assay type: functional; details: K562, 48 h
OVCAR-8 = experiment: Cytotoxicity against Homo sapiens (human) OVCAR8 cells after 48 hr by SRB assay; assay type: functional; details: OVCAR-8, 48 h
TK-10 = experiment: Cytotoxicity against Homo sapiens (human) TK10 cells after 48 hr by SRB assay; assay type: functional; details: TK-10, 48 h
ACHN = experiment: Cytotoxicity against Homo sapiens (human) ACHN cells after 48 hr by SRB assay; assay type: functional
[2] = Cytotoxicity against Homo sapiens (human) renal cancer cells assessed as cell growth at 10^-5 M after 48 hr by SRB assay relative to control; assay type: functional; details: Cancer cell lines, read-out: Activity
HL-60(TB) = experiment: Cytotoxicity against Homo sapiens (human) HL-60(TB) cells after 48 hr by SRB assay; assay type: functional; details: HL-60, 48 h
SR = experiment: Cytotoxicity against Homo sapiens (human) SR cells after 48 hr by SRB assay; assay type: functional
786-0 = experiment: Cytotoxicity against Homo sapiens (human) 786-0 cells after 48 hr by SRB assay; assay type: functional; details: 786-0, 48 h

Structure (SMILES): O=C(Nc1ccc(F)cc1)Nc1nc2ccc(OC(F)(F)F)cc2s1
- GI50 (CCRF-CEM): 3980 nM
- GI50 (IGROV-1): 3890 nM
- GI50 (PC-3): 2820 nM
- GI50 (MDA-MB-468): 2340 nM
- GI50 (NCI-H522): 3160 nM
- GI50 (SNB-75): 3470 nM
- GI50 (RXF 393): 2690 nM
- GI50 (Hs-578T): 3090 nM
- GI50 (BT-549): 3800 nM
- GI50 (COLO 205): 2090 nM
- GI50 (KM12): 2690 nM
- GI50 (OVCAR-5): 3630 nM
- GI50 (SF-268): 3720 nM
- GI50 (EKVX): 2630 nM
- inhibition [1]: inactive
- GI50 (SK-MEL-2): 3090 nM
- GI50 (HT-29): 3890 nM
- GI50 (HOP-62): 3800 nM
- GI50 (MDA-MB-231): 3310 nM
- GI50 (RPMI-8226): 2510 nM
- GI50 (SN12C): 2570 nM
- GI50 (T47D): 2630 nM
- GI50 (HOP-92): 3890 nM
- GI50 (K562): 3550 nM
- GI50 (OVCAR-8): 4270 nM
- GI50 (TK-10): 4070 nM
- GI50 (ACHN): 2400 nM
- growth at 10 µM [2]: 15.8%
- GI50 (HL-60(TB)): 3020 nM
- GI50 (SR): 3720 nM
- GI50 (786-0): 3470 nM

Structure (SMILES): N#Cc1ccc(NC(=O)Nc2nc3ccc(OC(F)(F)F)cc3s2)cc1
- GI50 (CCRF-CEM): 1510 nM
- GI50 (IGROV-1): 2000 nM
- GI50 (PC-3): 1350 nM
- GI50 (MDA-MB-468): 457 nM
- GI50 (NCI-H522): 427 nM
- GI50 (SNB-75): 1820 nM
- GI50 (RXF 393): 1860 nM
- GI50 (Hs-578T): 1780 nM
- GI50 (BT-549): 2750 nM
- GI50 (COLO 205): 1700 nM
- GI50 (KM12): 1020 nM
- GI50 (OVCAR-5): 4270 nM
- GI50 (SF-268): 3090 nM
- GI50 (EKVX): 1350 nM
- inhibition [1]: inactive
- GI50 (SK-MEL-2): 1780 nM
- GI50 (HT-29): 2090 nM
- GI50 (HOP-62): 2510 nM
- GI50 (MDA-MB-231): 933 nM
- GI50 (RPMI-8226): 1000 nM
- GI50 (SN12C): 1580 nM
- GI50 (T47D): 427 nM
- GI50 (HOP-92): 324 nM
- GI50 (K562): 537 nM
- GI50 (OVCAR-8): 2000 nM
- GI50 (TK-10): 1230 nM
- GI50 (ACHN): 724 nM
- growth at 10 µM [2]: -7.46%
- GI50 (HL-60(TB)): 2450 nM
- GI50 (SR): 741 nM
- GI50 (786-0): 2000 nM
